Data set [1] is described as follows: pH of exemplary salts with respect to concentration (% w/v). It counts as physicochemical.
The subject of the next data set is rats (hindpaw heat pain). The experiment in a line: Hindpaw withdrawal latency to a thermal stimulus after injection of a caine salt. The data set is classed as in vivo, Sprague Dawley rats. Particulars: 1% by weight solution in water, 100 μl injected into hindpaw of rats, 10 minutes post-injection, compared to naïve animals, N=10 animals/group, cutoff 32 seconds. On the procedure: Male Sprague Dawley® rats (200-300 g, Charles River) were housed in groups of two and were maintained in a standard 12-h light/dark cycle and testing was completed in the light portion of the cycle between 09:00-12:00. Animals were placed into the behavioural procedure room 30 min prior to testing to acclimate. When not in testing sessions, food and water were made available ad libitum. Animal testing procedures complied with the ethical guidelines and standards established by the University of Florida's Institutional Animal Care & Use Committee and with the Guide for Care and Use of Laboratory Animals (National Research Council Guide for the Care and Use of Laboratory Animals. Washington, D.C., National Academy Press; 1996.).
1% by weight solutions of 3a-3h were injected into the hindpaw of rats and withdrawal latency to a thermal stimulus was recorded 10 minutes post-injection. Response to hindpaw heat pain was determined by placing unrestrained rats on a clear glass platform under a small plastic cage and rats habituated for 5 min. A radiant heat source was aimed directly under the ventral hindpaw surface and the time to paw withdrawal was recorded. Baseline responses were obtained under naïve conditions (e.g., no injection), while post-treatment effects of caine salts 3a-3h in the respective vehicle (water) were assessed for 10 minutes following injection (100 μl). A cutoff of 32 seconds was used to prevent tissue damage.

Where “and” joins values, the source holds several entries; their conditions need not be identical. Equal entries are not always repeated. Structures can show the parent of a compound that is named as a salt. Where two headings read alike, the source gives them in different places.

For `CCCNC(C)C(=O)Nc1c(C)csc1C(=O)OC.O=C1NS(=O)(=O)c2ccccc21` (stereo not shown) [Articaine saccharinate, Articaine Saccharinate], in data set [1], the pH was 3.83 and 4.15. Besides, the “withdrawal latency to a thermal stimulus” value with rats (hindpaw heat pain) was “significant increase in latency time”.
On to Articaine Acesulfamate, for which the “withdrawal latency to a thermal stimulus” value in the data set on rats (hindpaw heat pain) is on record as “significant increase in latency time”.
In the case of `CC1=CC(=O)NS(=O)(=O)O1.Cc1cccc(C)c1NC(=O)C1CCCCN1C` (stereo not shown) [Mepivacaine acesulfamate], the pH in data set [1] (Conc. 2% w/v) is given as 4.91; in data set [1] (Conc. 5% w/v), 4.87; in data set [1] (Conc. 10% w/v), 4.00. For the same compound, the “withdrawal latency to a thermal stimulus” value in the data set on rats (hindpaw heat pain) is “significant increase in latency time”.
Turning to `CCCCN1CCCCC1C(=O)Nc1c(C)cccc1C` (stereo not shown) [Bupivacaine hydrochloride, reference compound], the figures for the pH in data set [1] (Conc. 2% w/v), in data set [1] (Conc. 5% w/v) and in data set [1] (Conc. 10% w/v) were 5.22, 4.81 and 4.23, respectively.
As to `CCCNC(C)C(=O)Nc1c(C)csc1C(=O)OC` (stereo not shown) [Articaine hydrochloride, reference compound], the pH came out at 4.78 in data set [1] (Conc. 2% w/v), 4.62 in data set [1] (Conc. 5% w/v) and 4.22 in data set [1] (Conc. 10% w/v).
On to `CNC[C@H](O)c1ccc(O)c(O)c1` [Epinephrine hydrochloride, reference compound], for which the pH was found to be 4.84 in data set [1] (Conc. 2% w/v), 3.91 in data set [1] (Conc. 5% w/v) and 2.72 in data set [1] (Conc. 10% w/v).
`CC1=CC(=O)NS(=O)(=O)O1.CCCNC(C)C(=O)Nc1ccccc1C` (stereo not shown) [Prilocaine acesulfamate, Prilocaine Acesulfamate]: the pH in data set [1] (Conc. 2% w/v) is given as 5.16; in data set [1] (Conc. 5% w/v), 5.00; in data set [1] (Conc. 10% w/v), 4.71. Besides, the “withdrawal latency to a thermal stimulus” value in the data set on rats (hindpaw heat pain) was “significant increase in latency time”.
Consider `CC1=CC(=O)NS(=O)(=O)O1.CCN(CC)CC(=O)Nc1c(C)cccc1C` [Lidocaine acesulfamate], for which the pH in data set [1] was 4.84 and 5.08 and 5.26.
Turning to `CCN(CC)CC(=O)Nc1c(C)cccc1C` [Lidocaine hydrochloride, reference compound], the results for the pH in data set [1] (Conc. 2% w/v), in data set [1] (Conc. 5% w/v) and in data set [1] (Conc. 10% w/v) were 4.65, 4.53 and 3.94, respectively.
`CCCNC(C)C(=O)Nc1ccccc1C.O=C1NS(=O)(=O)c2ccccc21` (stereo not shown) [Prilocaine saccharinate, Prilocaine Saccharinate]: in data set [1], the pH was 4.47 and 4.96 and 5.04.
As to `CCCNC(C)C(=O)Nc1ccccc1C` (stereo not shown) [Prilocaine hydrochloride, reference compound], the pH in data set [1] (Conc. 2% w/v) was determined as 4.60; in data set [1] (Conc. 5% w/v), 3.42; in data set [1] (Conc. 10% w/v) it was 2.10.
As for `Cc1cccc(C)c1NC(=O)C1CCCCN1C.O=C1NS(=O)(=O)c2ccccc21` (stereo not shown) [Mepivacaine saccharinate, Mepivacaine Saccharinate], in data set [1], the pH is 4.06 and 4.23. In addition, in the data set with rats (hindpaw heat pain), the “withdrawal latency to a thermal stimulus” value is given as “significant increase in latency time”.
For `CNC[C@H](O)c1ccc(O)c(O)c1.O=C1NS(=O)(=O)c2ccccc21` [Epinephrine saccharinate, Epinephrine Saccharinate], the pH in data set [1] was 3.57 and 4.03 and 4.41.
Regarding `CC1=CC([O-])=NS(=O)(=O)O1.[K+]` [Potassium acesulfamate, potassium 6-methyl-1,2,3-oxathiazin-4-olate 2,2-dioxide, reference compound], the figures for the pH in data set [1] (Conc. 2% w/v), in data set [1] (Conc. 5% w/v) and in data set [1] (Conc. 10% w/v) were 5.98, 6.33 and 5.78, respectively.
For `Cc1cccc(C)c1NC(=O)C1CCCCN1C` (stereo not shown) [Mepivacaine hydrochloride, reference compound], in that order: 4.53, 3.77 and 3.73.
Turning to `CCN(CC)CC(=O)Nc1c(C)cccc1C.O=C1NS(=O)(=O)c2ccccc21` [Lidocaine saccharinate], the pH in data set [1] was 4.31 and 4.41 and 4.51.
For `CC1=CC(=O)NS(=O)(=O)O1.CNC[C@H](O)c1ccc(O)c(O)c1` [Epinephrine acesulfamate, Epinephrine Acesulfamate], in data set [1], the pH was 4.01 and 4.14 and 4.34.
In the case of `CC1=CC(=O)NS(=O)(=O)O1.CCCCN1CCCCC1C(=O)Nc1c(C)cccc1C` (stereo not shown) [Bupivacaine acesulfamate, Bupivacaine Acesulfamate], the pH in data set [1] was 4.25 and 5.13 and 5.38. Besides, the “withdrawal latency to a thermal stimulus” value in the data set on rats (hindpaw heat pain) is “significant increase in latency time”.
For the compound `CCCCN1CCCCC1C(=O)Nc1c(C)cccc1C.O=C1NS(=O)(=O)c2ccccc21` (stereo not shown) [Bupivacaine saccharinate, Bupivacaine Saccharinate], the pH in data set [1] is 3.84 and 3.66 and 5.19. The “withdrawal latency to a thermal stimulus” value with rats (hindpaw heat pain) is on record as “significant increase in latency time”.

The values are drawn from US20180297966A1, “COMPOUNDS, COMPOSITIONS, AND METHODS OF MAKING AND USING THE SAME” (INNOVATIVE ANESTHETICS, LLC, priority 2015, published 2018).
